Measurements from US10508089B2, “Use of N-(1,3,4-Oxadiazol-2-yl)arylcarboxamides or their salts for controlling unwanted plants in areas of transgenic crop plants being tolerant to HPPD inhibitor herbicides” (BASF SE, priority 2014, dated 2019).

Experiments:
Avena HPPD SEQ ID No 2 = Avena HPPD SEQ ID No 2 (Avena sativa, UniProt A0ACD5V6K6); assay: Determination of HPPD activity in presence of N-(1,3,4-Oxadiazol-2-yl)arylcarboxamides (pI50); type: biochemical; details: negative log of molar concentration; inhibitor 0.1 to 100 μM; room temperature; 600 μM HPP
Avena HPPD SEQ ID No 2, sequence (A0ACD5V6K6 entry or part of it): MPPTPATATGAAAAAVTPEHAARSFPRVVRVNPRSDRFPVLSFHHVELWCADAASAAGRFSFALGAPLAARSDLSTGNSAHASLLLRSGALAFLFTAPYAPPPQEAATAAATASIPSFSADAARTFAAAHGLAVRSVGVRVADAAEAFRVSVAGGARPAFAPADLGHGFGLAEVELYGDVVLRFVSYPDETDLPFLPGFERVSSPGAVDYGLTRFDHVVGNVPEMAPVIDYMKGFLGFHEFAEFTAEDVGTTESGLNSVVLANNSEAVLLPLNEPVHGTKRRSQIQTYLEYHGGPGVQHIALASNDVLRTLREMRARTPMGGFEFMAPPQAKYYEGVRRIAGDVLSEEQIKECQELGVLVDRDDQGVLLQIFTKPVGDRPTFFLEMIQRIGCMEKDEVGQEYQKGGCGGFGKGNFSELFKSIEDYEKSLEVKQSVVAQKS
Procedure: (§1) HPPD activity was measured at room temperature by adding appropriate amounts of HPPD to a solution of 200 mM Tris-HCl pH 7.6, 10 mM ascorbate, 20 μM FeSO4, 650 units of catalase, 8 μg HGA dioxygenase (HGA: homogentisate) and 600 μM HPP in a total volume of 1 ml. Initial reaction rates in the absence or presence of inhibitors were determined from the increase in absorbance at 318 nm due to the formation of maleylacetoacetate (ϵ318=11,900 M−1 cm−1). pI50-values (the negative log values of the concentration of inhibitor necessary to inhibit 50% of the enzyme activity in molar concentration were determined from dose-response plots of HPPD activity versus inhibitor concentrations tested (0.1 to 100 μM) using the 4 Parameter Logistic Model or Sigmoidal Dose-Response Model of the ID Business Solutions Ltd. XLfit software suite. Due to the UV absorption of the HPPD inhibitors tested, inhibitor concentrations >100 μM could not be tested. In cases, the symbol “>” is used this means that the value was far higher than the one indicated but could not be precisely calculated within in the range of concentration of inhibitor tested.
(§2) In the 1st column of Table 8, the chemical compound employed in the assay is named (according to the numbering of the Tables 1 to 7, above). In columns 2, 3, 4, and 5 the pI50-values of the corresponding chemical compounds against various HPPD enzymes (name and SEQ ID Nos are indicated, respectively) are given.

FMP 37 SEQ ID No 9 = FMP 37 SEQ ID No 9 (Blepharisma japonicum, UniProt A8R3H6); assay: as above; type: biochemical; details: negative log of molar concentration; inhibitor 0.1 to 100 μM; room temperature; 600 μM HPP
FMP 37 SEQ ID No 9, sequence (A8R3H6 entry or part of it): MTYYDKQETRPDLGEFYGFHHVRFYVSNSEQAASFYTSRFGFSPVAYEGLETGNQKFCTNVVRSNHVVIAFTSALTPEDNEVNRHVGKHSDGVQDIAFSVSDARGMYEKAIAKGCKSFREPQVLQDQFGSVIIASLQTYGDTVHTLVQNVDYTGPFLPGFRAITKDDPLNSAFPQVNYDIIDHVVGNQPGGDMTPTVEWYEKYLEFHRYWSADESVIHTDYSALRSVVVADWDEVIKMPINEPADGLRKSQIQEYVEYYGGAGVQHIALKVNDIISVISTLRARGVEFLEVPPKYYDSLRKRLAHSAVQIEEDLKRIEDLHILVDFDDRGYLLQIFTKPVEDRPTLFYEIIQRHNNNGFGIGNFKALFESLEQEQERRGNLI
Procedure: as §1, §2

[1] = target: PfHPPD Evo 40 SEQ ID No 27 (Pseudomonas sp., UniProt P80064, A172V/A339E/A53E/D148E/D45N/E105D/E287Q/E300V/E334P/F143Y/G286D/G335S/H150N/H254A/H63N/I158V/I187A/I249V/K92N/L18F/N24G/N280D/S245T/S257K/S301E/T205S/V65I); assay: biochemical; parameters: species or system Pseudomonas fluorescens
PfHPPD Evo 40 SEQ ID No 27, sequence (P80064 1-354 with tags or gaps with the stated changes limits assumed): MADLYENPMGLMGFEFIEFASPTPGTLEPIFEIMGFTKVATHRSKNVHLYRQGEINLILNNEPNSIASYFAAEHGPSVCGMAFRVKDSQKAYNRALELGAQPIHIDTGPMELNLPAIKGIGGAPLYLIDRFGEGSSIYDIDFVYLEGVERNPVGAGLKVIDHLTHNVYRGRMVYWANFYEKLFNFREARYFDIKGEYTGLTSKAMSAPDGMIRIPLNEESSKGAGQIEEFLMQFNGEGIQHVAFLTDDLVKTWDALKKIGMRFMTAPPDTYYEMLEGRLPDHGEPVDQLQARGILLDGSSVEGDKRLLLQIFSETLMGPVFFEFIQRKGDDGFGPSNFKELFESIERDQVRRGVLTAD

[2] = target: PfHPPD Evo 41 SEQ ID No 29 (Pseudomonas sp., UniProt P80064, A172V/A339Q/A53E/D148E/D45N/E105D/E287Q/E300V/E334P/F143Y/G286D/G335W/H150N/H254A/H63N/I158V/I187A/I249V/K338A/K92N/L18F/N24G/N280D/S245T/S257K/S301E/T205S/V65I); assay: biochemical; parameters: species or system Pseudomonas fluorescens
PfHPPD Evo 41 SEQ ID No 29, sequence (P80064 1-354 with tags or gaps with the stated changes limits assumed): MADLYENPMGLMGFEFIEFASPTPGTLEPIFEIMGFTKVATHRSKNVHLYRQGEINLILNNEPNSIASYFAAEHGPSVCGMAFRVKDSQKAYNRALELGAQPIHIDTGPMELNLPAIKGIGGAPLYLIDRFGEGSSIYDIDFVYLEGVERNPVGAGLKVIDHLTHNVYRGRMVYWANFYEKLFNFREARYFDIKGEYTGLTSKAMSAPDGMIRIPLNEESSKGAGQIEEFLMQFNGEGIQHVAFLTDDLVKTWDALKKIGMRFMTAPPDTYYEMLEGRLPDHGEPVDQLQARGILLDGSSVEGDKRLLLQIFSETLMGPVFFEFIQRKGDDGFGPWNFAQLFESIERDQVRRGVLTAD

PfHPPDEvo40 = PfHPPDEvo40 (Pseudomonas sp., UniProt P80064, A172V/A339E/A53E/D148E/D45N/E105D/E287Q/E300V/E334P/F143Y/G286D/G335S/H150N/H254A/H63N/I158V/I187A/I249V/K92N/L18F/N24G/N280D/S245T/S257K/S301E/T205S/V65I); assay: Brown color assay of HPPD extracts on solid media containing an HPPD inhibitor; details: 250 uM inhibitor in solid media
wild-type soybean shoots = assay: Soybean transformation, selection of shoots with HPPD inhibitor; type: in vivo; details: wild-type soybean shoots treated with the same amount of the respective HPPD inhibitor
Excerpt: (§3) Soybean transformation was achieved by using methods by best mode well known in the art, such as the one described using the Agrobacterium tumefaciens mediated transformation soybean half-seed explants using essentially the method described by Paz et al. (2006), Plant cell Rep. 25:206. Transformants were identified using various HPPD inhibitors tembotrione or isoxaflutole as selection marker. The appearance of green shoots can be observed, and documented as an indicator of tolerance to the respective herbicide.

[3] = tested on: tolerant transgenic soybean shoots; assay: as above; type: in vivo; details: compared with untreated wild-type soybean shoots
Excerpt: as §3

Compound	IC50 (Avena HPPD SEQ ID No 2) [µM]	IC50 (FMP 37 SEQ ID No 9) [µM]	IC50 [1] [µM]	IC50 [2] [µM]	tolerance of variant PfHPPDEvo40 compared to PfHPPD336W (brown pigment formation, titration of extract) (PfHPPDEvo40)	appearance of shoots under HPPD inhibitor selection (wild-type soybean shoots)	appearance of shoots under HPPD inhibitor selection [3]
Cc1nnc(NC(=O)c2ccc(C(F)(F)F)c([S+](C)[O-])c2C)o1 (centres unmarked) [Compound 2-144]	3.98	12.6	6.31	10			
Cc1nnc(NC(=O)c2ccc(C(F)(F)F)c([S+](C)[O-])c2Cl)o1 (centres unmarked) [Compound 2-360]	3.98	20	15.8	20			
Cc1nnc(NC(=O)c2ccc(C(F)(F)F)c(S(C)(=O)=O)c2Cl)o1 [Compound 2-361]	1.58	12.6	5.01	7.94			
Cc1nnc(NC(=O)c2ccc(C(F)(F)F)c(-n3cccn3)c2Cl)o1 [Compound 2-363]	1.58	10	6.31	12.6			
Cc1nnc(NC(=O)c2ccc(C(F)(F)F)c(OCCF)c2Cl)o1 [Compound 2-364]	1.58	7.94	12.6	31.6			
COCc1nnc(NC(=O)c2ccc(C(F)(F)F)c(S(C)(=O)=O)c2C)o1 [Compound 5-145]	3.16	10	< 5.01	< 5.01			
Cc1c(C(=O)Nc2nnc(C3CC3)o2)ccc(C(F)(F)F)c1[S+](C)[O-] (centres unmarked) [Compound 6-37]	39.8	158	126	158			
Cc1nnc(NC(=O)c2ccc(C(F)(F)F)nc2C)o1 [Compound 7-132]	15.8	7.94	200	251			
CS(=O)(=O)c1cc(C(F)(F)F)ccc1C(=O)C(C#N)C(=O)C1CC1 (centres unmarked) [diketonitrile]					improved tolerance		
CS(=O)(=O)c1cc(C(F)(F)F)ccc1C(=O)c1cnoc1C1CC1 [isoxaflutole]						entirely bleached	normal greening
CS(=O)(=O)c1ccc(C(=O)C2C(=O)CCCC2=O)c(Cl)c1COCC(F)(F)F [tembotrione]					improved tolerance	entirely bleached	normal greening
